# Laboratory results reported in patent US12473304B2, “Heterocyclic PAD4 inhibitors” (BRISTOL-MYERS SQUIBB COMPANY, priority 2020, dated 2025).
# Biological target: human PAD4 (hPAD4) (Homo sapiens (Human), UniProt Q9UM07)
# Assay: RFMS Human PAD4 Functional Assay 1
# Assay type: biochemical
# Settings: RFMS assay 1; 5 nM hPAD4, 250 μM BAEE substrate, 50 μM calcium, 37° C.
# Method in brief: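 Recombinant hPAD4 (5 nM) was preincubated with compound (top 50 μM, 0.5% DMSO) for 30 min at 37 °C, then reacted with 250 μM BAEE for 90 min at 37 °C in pH 7.5 HEPES buffer with 50 μM calcium and 5 μM TPEN. Product was derivatized with phenyl glyoxal and quantified by RapidFire MS.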
# Sequence of human PAD4 (hPAD4) (Q9UM07 whole entry): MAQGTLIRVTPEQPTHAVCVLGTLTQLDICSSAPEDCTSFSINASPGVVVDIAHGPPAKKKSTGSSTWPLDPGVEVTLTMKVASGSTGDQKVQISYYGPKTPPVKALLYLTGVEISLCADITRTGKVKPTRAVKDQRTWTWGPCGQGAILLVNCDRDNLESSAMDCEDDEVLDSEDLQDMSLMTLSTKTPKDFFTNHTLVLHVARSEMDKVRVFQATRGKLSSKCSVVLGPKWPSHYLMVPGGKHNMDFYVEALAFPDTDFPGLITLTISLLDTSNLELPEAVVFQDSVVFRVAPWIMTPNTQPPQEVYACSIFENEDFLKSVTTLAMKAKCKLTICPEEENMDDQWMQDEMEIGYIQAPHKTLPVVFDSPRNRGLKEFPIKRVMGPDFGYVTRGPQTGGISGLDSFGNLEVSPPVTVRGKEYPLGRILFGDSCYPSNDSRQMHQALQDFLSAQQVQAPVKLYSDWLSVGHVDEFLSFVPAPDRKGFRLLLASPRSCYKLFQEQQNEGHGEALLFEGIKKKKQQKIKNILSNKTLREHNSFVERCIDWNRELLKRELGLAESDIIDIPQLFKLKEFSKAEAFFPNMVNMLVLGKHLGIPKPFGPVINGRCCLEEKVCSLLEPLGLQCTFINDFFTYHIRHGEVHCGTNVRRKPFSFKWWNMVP
row,Structure (SMILES),IC50
1,"COc1cc(C(=O)N2CC3CCC2[C@@H]3N)cc2sc(-c3cc4ccc(N5CCC(OC)CC5)nc4n3CC3CC3)c(C)c12 (stereo partly drawn) [Example 137, ((7R)-7-Amino-2-azabicyclo[2.2.1]heptan-2-yl)(2-(1-(cyclopropylmethyl)-6-(4-methoxypiperidin-1-yl)-1H-pyrrolo[2,3-b]pyridin-2-yl)-4-methoxy-3-methylbenzo[b]thiophen-6-yl)methanone]",0.071 µM
2,"COc1cc(C(=O)N2C[C@H](N)C[C@@H](F)C2)cc2sc(-c3cc4cccnc4n3CC3CC3)c(C)c12 [Example 138, ((3R,5R)-3-Amino-5-fluoropiperidin-1-yl)(2-(1-(cyclopropylmethyl)-1H-pyrrolo[2,3-b]pyridin-2-yl)-4-methoxy-3-methylbenzo[b]thiophen-6-yl)methanone]",0.252 µM
3,"COc1cc(C(=O)N2C[C@H](N)C[C@@H](F)C2)cc2sc(-c3cc4ccc(-c5ccc6c(c5)CNC6=O)nc4n3CC3CC3)c(C)c12 [Example 139, 5-(2-(6-((3R,5R)-3-Amino-5-fluoropiperidine-1-carbonyl)-4-methoxy-3-methylbenzo[b]thiophen-2-yl)-1-(cyclopropylmethyl)-1H-pyrrolo[2,3-b]pyridin-6-yl)isoindolin-1-one]",0.198 µM
4,"COc1cc(C(=O)N2C[C@H](N)C[C@@H](F)C2)cc2sc(-c3cc4ccc(-c5ccc6c(c5)C(=O)NC6)nc4n3CC3CC3)c(C)c12 [Example 140, 6-(2-(6-((3R,5R)-3-Amino-5-fluoropiperidine-1-carbonyl)-4-methoxy-3-methylbenzo[b]thiophen-2-yl)-1-(cyclopropylmethyl)-1H-pyrrolo[2,3-b]pyridin-6-yl)isoindolin-1-one]",0.346 µM
5,"COc1cc(C(=O)N2C[C@H](N)C[C@@H](F)C2)cc2sc(-c3cc4ccc(-c5ccc(C(N)=O)c(F)c5)nc4n3CC3CC3)c(C)c12 [Example 141, 4-(2-(6-((3R,5R)-3-Amino-5-fluoropiperidine-1-carbonyl)-4-methoxy-3-methylbenzo[b]thiophen-2-yl)-1-(cyclopropylmethyl)-1H-pyrrolo[2,3-b]pyridin-6-yl)-2-fluorobenzamide]",0.179 µM
6,"COc1cc(C(=O)N2C[C@H](N)C[C@@H](F)C2)cc2sc(-c3cc4ccc(N5CCC(OC)CC5)nc4n3CC3CC3)c(C)c12 [Example 142, ((3R,5R)-3-Amino-5-fluoropiperidin-1-yl)(2-(1-(cyclopropylmethyl)-6-(4-methoxypiperidin-1-yl)-1H-pyrrolo[2,3-b]pyridin-2-yl)-4-methoxy-3-methylbenzo[b]thiophen-6-yl)methanone]",0.642 µM
7,"COc1cc(C(=O)N2C[C@H](N)C[C@@H](F)C2)cc2sc(-c3cc4ccc(-c5ccc6c(c5)C(=O)NC6)cc4n3CC3CC3)c(C)c12 [Example 143, 6-(2-(6-((3R,5R)-3-Amino-5-fluoropiperidine-1-carbonyl)-4-methoxy-3-methylbenzo[b]thiophen-2-yl)-1-(cyclopropylmethyl)-1H-indol-6-yl)isoindolin-1-one]",0.588 µM
8,"COc1cc(C(=O)N2C[C@H](N)C[C@@H](F)C2)cc2sc(-c3cc4ccc(-c5ccc6c(c5)CNC6=O)cc4n3CC3CC3)c(C)c12 [Example 144, 5-(2-(6-((3R,5R)-3-Amino-5-fluoropiperidine-1-carbonyl)-4-methoxy-3-methylbenzo[b]thiophen-2-yl)-1-(cyclopropylmethyl)-1H-indol-6-yl)isoindolin-1-one]",0.164 µM
9,"COc1cc(C(=O)N2CC3CCC2[C@@H]3N)cc2oc(-c3cc4cccnc4n3CC3CC3)c(C)c12 (stereo partly drawn) [Example 145, ((7R)-7-Amino-2-azabicyclo[2.2.1]heptan-2-yl)(2-(1-(cyclopropylmethyl)-1H-pyrrolo[2,3-b]pyridin-2-yl)-4-methoxy-3-methylbenzofuran-6-yl)methanone]",0.285 µM
10,"COc1cc(C(=O)N2CC3CCC2[C@@H]3N)cc2oc(-c3cc4ccc(Cl)nc4n3CC3CC3)c(C)c12 (stereo partly drawn) [Example 146, ((7R)-7-Amino-2-azabicyclo[2.2.1]heptan-2-yl)(2-(6-chloro-1-(cyclopropylmethyl)-1H-pyrrolo[2,3-b]pyridin-2-yl)-4-methoxy-3-methylbenzofuran-6-yl)methanone]",1.21 µM
11,"COc1cc(C(=O)N2C[C@H](N)C[C@@H](F)C2)cc2oc(-c3cc4cccnc4n3CC3CC3)c(C)c12 [Example 147, ((3R,5R)-3-Amino-5-fluoropiperidin-1-yl)(2-(1-(cyclopropylmethyl)-1H-pyrrolo[2,3-b]pyridin-2-yl)-4-methoxy-3-methylbenzofuran-6-yl)methanone]",0.954 µM
12,"COc1cc(C(=O)N2CC3CCC2[C@@H]3N)cc2oc(-c3cc4ccccc4n3CC3CC3)c(C)c12 (stereo partly drawn) [Example 148, ((7R)-7-Amino-2-azabicyclo[2.2.1]heptan-2-yl)(2-(1-(cyclopropylmethyl)-1H-indol-2-yl)-4-methoxy-3-methylbenzofuran-6-yl)methanone]",0.442 µM
13,"COc1cc(C(=O)N2CC3CCC2[C@@H]3N)cc2oc(-c3cc4ccc(-c5ccc6c(c5)CNC6=O)cc4n3CC3CC3)c(C)c12 (stereo partly drawn) [Example 149, 5-(2-(6-((7R)-7-Amino-2-azabicyclo[2.2.1]heptane-2-carbonyl)-4-methoxy-3-methylbenzofuran-2-yl)-1-(cyclopropylmethyl)-1H-indol-6-yl)isoindolin-1-one]",0.111 µM
14,"COc1cc(C(=O)N2CC3CCC2[C@@H]3N)cc2oc(-c3cc4ccc(-c5ccc6c(c5)C(=O)NC6)cc4n3CC3CC3)c(C)c12 (stereo partly drawn) [Example 150, 6-(2-(6-((7R)-7-Amino-2-azabicyclo[2.2.1]-heptane-2-carbonyl)-4-methoxy-3-methylbenzofuran-2-yl)-1-(cyclopropylmethyl)-1H-indol-6-yl)isoindolin-1-one]",0.187 µM
15,"COc1cc(C(=O)N2CC3CCC2[C@@H]3N)cc2oc(-c3cc4ccc(C)cc4n3CC3CC3)c(C)c12 (stereo partly drawn) [Example 151, ((7R)-7-Amino-2-azabicyclo[2.2.1]heptan-2-yl)(2-(1-(cyclopropylmethyl)-6-methyl-1H-indol-2-yl)-4-methoxy-3-methylbenzofuran-6-yl)methanone]",0.325 µM
16,"COc1cc(C(=O)N2CC3CCC2[C@@H]3N)cc2oc(-c3cc4ccc(-c5ccc(C(N)=O)c(F)c5)cc4n3CC3CC3)c(C)c12 (stereo partly drawn) [Example 152, 4-(2-(6-((7R)-7-Amino-2-azabicyclo[2.2.1]heptane-2-carbonyl)-4-methoxy-3-methylbenzofuran-2-yl)-1-(cyclopropylmethyl)-1H-indol-6-yl)-2-fluorobenzamide]",0.192 µM
17,"COc1cc(C(=O)N2CC3CCC2[C@@H]3N)cc2oc(-c3cc4ccc(-c5ccc(C(N)=O)c(Cl)c5)cc4n3CC3CC3)c(C)c12 (stereo partly drawn) [Example 153, 4-(2-(6-((7R)-7-Amino-2-azabicyclo[2.2.1]heptane-2-carbonyl)-4-methoxy-3-methylbenzofuran-2-yl)-1-(cyclopropylmethyl)-1H-indol-6-yl)-2-chlorobenzamide]",0.628 µM
18,"COc1cc(C(=O)N2CC3CCC2[C@@H]3N)cc2oc(-c3cc4ccc(-c5ccc(O)c(F)c5)cc4n3CC3CC3)c(C)c12 (stereo partly drawn) [Example 154, ((7R)-7-Amino-2-azabicyclo[2.2.1]heptan-2-yl)(2-(1-(cyclopropylmethyl)-6-(3-fluoro-4-hydroxyphenyl)-1H-indol-2-yl)-4-methoxy-3-methylbenzofuran-6-yl)methanone]",1.01 µM
